Active and inactive are the calls of the source. The rule behind the calls is not given here.
Columns and labels:
Biomphalaria glabrata [1] = assay: Effect on Biomphalaria glabrata intestinal rhythmicity assessed as increase in contraction at 1.2 x 10^-6 to 1.9 x 10^-5 M; assay type: functional, tissue-based; settings: Intestine
Esophagus [2] = assay: Effect on Biomphalaria glabrata esophageal rhythmicity assessed as increase in contraction at 1.0 x 10^-7 to 9.6 x 10^-6 M; assay type: functional
Biomphalaria glabrata [3] = assay: Effect on Biomphalaria glabrata intestinal rhythmicity assessed as tissue contraction in presence of 8.5 to 320 nM cyproheptadine; assay type: functional, tissue-based; settings: Intestine
Esophagus [4] = assay: Effect on Biomphalaria glabrata esophageal rhythmicity assessed as tissue contraction in presence of 8.5 to 320 nM methysergide; assay type: functional, tissue-based
Esophagus [5] = assay: Effect on Biomphalaria glabrata esophageal rhythmicity assessed as tissue contraction in presence of 8.5 to 320 nM cyproheptadine; assay type: functional, tissue-based
Esophagus [6] = assay: Effect on Biomphalaria glabrata esophageal rhythmicity assessed as increase in phasic contraction in relaxation phase at 1.92 x 10^-8 to 4 x 10^-7 M; assay type: functional, tissue-based
Biomphalaria glabrata [7] = assay: Effect on Biomphalaria glabrata intestinal rhythmicity assessed as potentiation in amplitude of contraction at 4.8 x 10^-10 M; assay type: functional, tissue-based; settings: Intestine
Esophagus [8] = assay: Effect on Biomphalaria glabrata esophageal rhythmicity assessed as potentiation in amplitude of contraction at 4.8 x 10^-10 M; assay type: functional, tissue-based
Biomphalaria glabrata [9] = assay: Effect on Biomphalaria glabrata intestinal rhythmicity assessed as tissue contraction in presence of 8.5 to 320 nM methysergide; assay type: functional, tissue-based; settings: Intestine
Biomphalaria glabrata [10] = assay: Inhibition of calcium uptake in Biomphalaria glabrata assessed as available calcium in test solution at 0.25 ppm after 3 weeks; assay type: functional
Biomphalaria glabrata [11] = assay: Inhibition of calcium uptake in Biomphalaria glabrata assessed as available calcium in test solution at 0.25 ppm after 9 weeks; assay type: functional
Biomphalaria glabrata [12] = assay: Inhibition of calcium uptake in Biomphalaria glabrata assessed as available calcium in test solution at 0.125 ppm after 3 weeks; assay type: functional
Esophagus [13] = assay: Effect on Biomphalaria glabrata esophageal rhythmicity assessed as enhanced tissue contracture at 4.0 x 10^-7 to 3 x 10^-6 M; assay type: functional, tissue-based
Biomphalaria glabrata [14] = assay: Inhibition of calcium uptake in Biomphalaria glabrata assessed as available calcium in test solution at 0.125 ppm after 5 weeks; assay type: functional
Biomphalaria glabrata [15] = assay: Effect on Biomphalaria glabrata intestinal rhythmicity assessed as potentiation of tissue contracture in presence of 1 to 100 nM methysergide; assay type: functional, tissue-based; settings: Intestine
Biomphalaria glabrata [16] = assay: Effect on Biomphalaria glabrata intestinal rhythmicity assessed as potentiation of tissue contracture in presence of 0.1 mM lanthanum; assay type: functional, tissue-based; settings: Intestine
Biomphalaria glabrata [17] = assay: Inhibition of calcium uptake in Biomphalaria glabrata assessed as available calcium in test solution at 0.25 ppm after 2 weeks; assay type: functional
Esophagus [18] = assay: Effect on Biomphalaria glabrata esophageal rhythmicity assessed as potentiation of tissue contracture in presence of 0.1 mM lanthanum; assay type: functional, tissue-based
Esophagus [19] = assay: Effect on Biomphalaria glabrata esophageal rhythmicity assessed as potentiation of tissue contracture in presence of 10 uM propranolol; assay type: functional, tissue-based
Biomphalaria glabrata [20] = assay: Effect on Biomphalaria glabrata intestinal rhythmicity assessed as potentiation of tissue contracture in presence of 1 uM atropine; assay type: functional, tissue-based; settings: Intestine
Biomphalaria glabrata [21] = assay: Inhibition of calcium uptake in Biomphalaria glabrata assessed as available calcium in test solution at 0.125 ppm after 8 weeks; assay type: functional
Biomphalaria glabrata [22] = assay: Inhibition of calcium uptake in Biomphalaria glabrata assessed as available calcium in test solution at 0.25 ppm after 10 weeks; assay type: functional
Biomphalaria glabrata [23] = assay: Inhibition of calcium uptake in Biomphalaria glabrata assessed as available calcium in test solution at 0.125 ppm after 9 weeks; assay type: functional
Biomphalaria glabrata [24] = assay: Inhibition of calcium uptake in Biomphalaria glabrata assessed as available calcium in test solution at 0.25 ppm after 6 weeks; assay type: functional
Biomphalaria glabrata [25] = assay: Inhibition of calcium uptake in Biomphalaria glabrata assessed as available calcium in test solution at 0.125 ppm after 10 weeks; assay type: functional
Biomphalaria glabrata [26] = assay: Inhibition of calcium uptake in Biomphalaria glabrata assessed as available calcium in test solution at 0.125 ppm after 2 weeks; assay type: functional
Biomphalaria glabrata [27] = assay: Inhibition of calcium uptake in Biomphalaria glabrata assessed as available calcium in test solution at 0.25 ppm after 4 weeks; assay type: functional
Biomphalaria glabrata [28] = assay: Inhibition of calcium uptake in Biomphalaria glabrata assessed as available calcium in test solution at 0.25 ppm after 1 week; assay type: functional
Esophagus [29] = assay: Effect on Biomphalaria glabrata esophageal rhythmicity assessed as potentiation of tissue contracture in presence of 1 to 100 nM methysergide; assay type: functional, tissue-based
Biomphalaria glabrata [30] = assay: Inhibition of calcium uptake in Biomphalaria glabrata assessed as available calcium in test solution at 0.25 ppm after 7 weeks; assay type: functional
Biomphalaria glabrata [31] = assay: Inhibition of calcium uptake in Biomphalaria glabrata assessed as available calcium in test solution at 0.125 ppm after 1 week; assay type: functional
Esophagus [32] = assay: Effect on Biomphalaria glabrata esophageal rhythmicity assessed as potentiation of tissue contracture in presence of 1 to 100 nM cyproheptadine; assay type: functional, tissue-based
Esophagus [33] = assay: Effect on Biomphalaria glabrata esophageal rhythmicity assessed as potentiation of tissue contracture in presence of 1 uM atropine; assay type: functional, tissue-based
Biomphalaria glabrata [34] = assay: Effect on Biomphalaria glabrata intestinal rhythmicity assessed as potentiation of tissue contracture in presence of 1 to 100 nM cyproheptadine; assay type: functional, tissue-based; settings: Intestine
Biomphalaria glabrata [35] = assay: Inhibition of calcium uptake in Biomphalaria glabrata assessed as available calcium in test solution at 0.25 ppm after 5 weeks; assay type: functional
Biomphalaria glabrata [36] = assay: Effect on Biomphalaria glabrata intestinal rhythmicity assessed as potentiation of tissue contracture in presence of 10 uM propranolol; assay type: functional, tissue-based; settings: Intestine
Biomphalaria glabrata [37] = assay: Inhibition of calcium uptake in Biomphalaria glabrata assessed as available calcium in test solution at 0.25 ppm after 8 weeks; assay type: functional
Esophagus [38] = assay: Effect on Biomphalaria glabrata esophageal rhythmicity assessed as potentiation of tissue contracture in presence of 0.1 uM verapamil; assay type: functional
Biomphalaria glabrata [39] = assay: Inhibition of calcium uptake in Biomphalaria glabrata assessed as available calcium in test solution at 0.125 ppm after 4 weeks; assay type: functional
Biomphalaria glabrata [40] = assay: Inhibition of calcium uptake in Biomphalaria glabrata assessed as available calcium in test solution at 0.125 ppm after 6 weeks; assay type: functional
Biomphalaria glabrata [41] = assay: Inhibition of calcium uptake in Biomphalaria glabrata assessed as available calcium in test solution at 0.125 ppm after 7 weeks; assay type: functional
Biomphalaria glabrata [42] = assay: Effect on Biomphalaria glabrata intestinal rhythmicity assessed as potentiation of tissue contracture in presence of 0.1 uM verapamil; assay type: functional, tissue-based; settings: Intestine
Biomphalaria glabrata [43] = assay: Effect on Biomphalaria glabrata intestinal rhythmicity assessed as enhanced tissue contracture at 4.0 x 10^-7 to 3 x 10^-6 M; assay type: functional, tissue-based; settings: Intestine

For `NCCc1c[nH]c2ccc(O)cc12`, the Activity (Biomphalaria glabrata [1]) was “Active”, the Activity (Esophagus [2]) was “Active” and the Activity (Biomphalaria glabrata [3]) was “inactive”. The Activity (Esophagus [4]) was “inactive”, the Activity (Esophagus [5]) was “inactive” and the Activity (Esophagus [6]) was “Active”. The Activity (Biomphalaria glabrata [7]) was “Active”, the Activity (Esophagus [8]) was “Active” and the Activity (Biomphalaria glabrata [9]) was “inactive”.
With `CC(=O)N[C@H]1[C@H](O[C@H]2CC[C@]3(C)[C@H]4CC=C5[C@H]6CC(C)(C)CC[C@]6(C(=O)O)CC[C@@]5(C)[C@]4(C)CC[C@H]3C2(C)C)O[C@H](CO)[C@@H](O)[C@@H]1O` [ARIDANIN] the Activity (Biomphalaria glabrata [10]) was 24.2 ppm, the Activity (Biomphalaria glabrata [11]) was 70.8 ppm and the Activity (Biomphalaria glabrata [12]) was 22.2 ppm. For the same molecule, the Activity (Esophagus [13]) was “Active”, the Activity (Biomphalaria glabrata [14]) was 18.7 ppm and the Activity (Biomphalaria glabrata [15]) was “Active”. The Activity (Biomphalaria glabrata [16]) was “inactive”, the Activity (Biomphalaria glabrata [17]) was 19.8 ppm and the Activity (Esophagus [18]) was “inactive”. The Activity (Esophagus [19]) was “Active”, the Activity (Biomphalaria glabrata [20]) was “Active” and the Activity (Biomphalaria glabrata [21]) was 49.8 ppm. For the same molecule, the Activity (Biomphalaria glabrata [22]) was 90.4 ppm, the Activity (Biomphalaria glabrata [23]) was 69.6 ppm and the Activity (Biomphalaria glabrata [24]) was 52.5 ppm. It also gave an Activity (Biomphalaria glabrata [25]) of 89 ppm, an Activity (Biomphalaria glabrata [26]) of 19.9 ppm and an Activity (Biomphalaria glabrata [27]) of 26.5 ppm. The Activity (Biomphalaria glabrata [28]) was 28.3 ppm, the Activity (Esophagus [29]) was “Active” and the Activity (Biomphalaria glabrata [30]) was 73 ppm. The Activity (Biomphalaria glabrata [31]) was 28.2 ppm, the Activity (Esophagus [32]) was “inactive” and the Activity (Esophagus [33]) was “Active”. The Activity (Biomphalaria glabrata [34]) was “inactive”, the Activity (Biomphalaria glabrata [35]) was 19 ppm and the Activity (Biomphalaria glabrata [36]) was “Active”. For the same molecule, the Activity (Biomphalaria glabrata [37]) was 47.7 ppm, the Activity (Esophagus [38]) was “inactive” and the Activity (Biomphalaria glabrata [39]) was 28.9 ppm. For the same molecule, the Activity (Biomphalaria glabrata [40]) was 51.1 ppm, the Activity (Biomphalaria glabrata [41]) was 68.7 ppm and the Activity (Biomphalaria glabrata [42]) was “inactive”. The Activity (Biomphalaria glabrata [43]) was “Active”.
